This note sets out measurements from patent publication US7094801B2, “Chalcone derivatives and their use to treat diseases” (Atherogenics, Inc., priority 2001, dated 2006).

Some results are limits rather than exact numbers.

One data set relates to VCAM-1. The data set can be described thus: In Vitro VCAM-1 Assay (TNF-α stimulated HAEC or HPAEC, cell ELISA). The format is cell-based, human. To be noted: Homo sapiens, 16 h, TNF-α (1 ng/ml) stimulated HAEC or HPAEC, approximately 16 hours. Put shortly: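 Primary human aortic or pulmonary endothelial cells (below passage 9) stimulated with TNF-α (1 ng/ml) plus compound (four concentrations, ≤0.25% DMSO) for about 16 h. Surface VCAM-1 detected by cell ELISA (HRP/TMB, OD 450 nm). IC50 taken as the concentration giving 50% inhibition of the TNF-α-only response.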

Compound `COc1cc(OC)c(-c2cncnc2)cc1/C=C/C(=O)c1ccc(C(=O)O)cc1` [Example 31, 4-[3E-(2,4-Dimethoxy-5-pyrimidin-5-yl-phenyl)-acryloyl]-benzoic acid] came in with a melting point of more than 260 °C. This compound yielded an IC50 with VCAM-1 of more than 10 µM.

`COc1cc(OCC2CC2)c(/C=C/C(=O)c2ccc(C(=O)O)cc2)cc1-c1cccs1` [Example 32, 4-[3E-(2-Cyclopropylmethoxy-4-methoxy-5-thiophen-2-yl-phenyl)-acryloyl]-benzoic acid] registered a melting point of 187 to 191 °C. In addition, the half-maximal inhibitory concentration (IC50) in the data set on VCAM-1 was less than 5 µM.

As to `COc1cc(OC)c(-c2c(C)noc2C)cc1/C=C/C(=O)c1ccc(C(=O)O)cc1` [Example 33, 4-{3E-[5-(3,5-Dimethyl-isoxazol-4-yl)-2,4-dimethoxy-phenyl]-acryloyl}-benzoic acid], the melting point is more than 260 °C. In the data set with VCAM-1, this compound showed a concentration for half-maximal inhibition (IC50) of less than 5 µM.

As to `COc1ccc(/C=C/C(=O)c2ccc(C(=O)O)cc2)c(-c2cccs2)c1` [Example 34, 4-[3E-(4-Methoxy-2-thiophen-2-yl-phenyl)-acryloyl]-benzoic acid], the melting point lay within 209 to 211 °C. In addition, the IC50 in the data set with VCAM-1 was more than 10 µM.

The compound `COc1cc(OC)c(-c2cccs2)cc1/C=C/C(=O)c1ccccc1C(=O)O` [Example 35, 2-[3E-(2,4-Dimethoxy-5-thiophen-2-yl-phenyl)-acryloyl]-benzoic acid] gave a melting point of 196 to 198 °C. Also, in the data set on VCAM-1, the 50% inhibitory concentration (IC50) was more than 10 µM.

For the compound `COc1cc(-c2cccs2)cc(OC)c1/C=C/C(=O)c1ccc(C(=O)O)cc1` [Example 37, 4-[3E-(2,6-Dimethoxy-4-thiophen-2-yl-phenyl)-acryloyl]-benzoic acid], the melting point lay in the range of 256 to 258 °C. In the data set on VCAM-1, this compound came in with a half-inhibitory concentration (IC50) of more than 10 µM.

With `COc1ncc(-c2cc(/C=C/C(=O)c3ccc(C(=O)O)cc3)c(OC)cc2OC)c(OC)n1` [Example 38, 4-{3E-[5-(2,4-Dimethoxy-pyrimidin-5-yl)-2,4-dimethoxy-phenyl]-acryloyl}-benzoic acid], the melting point was 203 to 205 °C. In addition, the IC50 with VCAM-1 is less than 10 µM.

Consider `COc1cc(OC)c(/C=C/C(=O)c2ccc(C(=O)O)cc2)c(-c2cccs2)c1` [Example 39, 4-[3E-(2,4-Dimethoxy-6-thiophen-2-yl-phenyl)-acryloyl]-benzoic acid], for which the melting point was 231 °C (dec.). The compound also yielded an IC50 in the data set on VCAM-1 of more than 10 µM.

In turn, `COc1cc(OC)c(-c2ccc(C)s2)cc1/C=C/C(=O)c1ccc(C(=O)O)cc1` [Example 40, 4-{3E-[2,4-Dimethoxy-5-(5-methyl-thiophen-2-yl)-phenyl]-acryloyl}-benzoic acid] displayed a melting point of 213 to 215 °C. In the data set on VCAM-1, this compound showed an IC50 of less than 1 µM.

The compound `COc1ccc(/C=C/C(=O)c2ccc(C(=O)O)cc2)cc1-c1cccs1` [Example 41, 4-[3E-(4-Methoxy-3-thiophen-2-yl-phenyl)-acryloyl]-benzoic acid] registered a melting point of 219 to 220 °C. Also, the IC50 in the data set with VCAM-1 was less than 5 µM.

`O=C(O)c1ccc(C(=O)/C=C/c2cccc(-c3cccs3)c2)cc1` [Example 42, 4-[3E-(3-Thiophen-2-yl-phenyl)-acryloyl]-benzoic acid]: the melting point was 238 °C (dec.). The compound also displayed an IC50 with VCAM-1 of less than 5 µM.

In the case of `COc1cc(OC)c(-c2cccs2)cc1/C=C/C(=O)c1cccc(C(=O)O)c1` [Example 43, 3-[3E-(2,4-Dimethoxy-5-thiophen-2-yl-phenyl)-acryloyl]-benzoic acid], the melting point lay in the range of 179 to 182 °C. Moreover, in the data set with VCAM-1, the IC50 is less than 5 µM.

Take `COc1ccc(/C=C/C(=O)c2ccc(C(=O)O)cc2)c(OC)c1-c1cc2ccccc2s1` [Example 44, 4-[3E-(3-Benzo[b]thiophen-2-yl-2,4-dimethoxy-phenyl)-acryloyl]-benzoic acid]: the melting point was 237 °C (dec.). Besides, the IC50 in the data set with VCAM-1 was less than 1 µM.

Turning to `COc1ccc(-c2cccs2)cc1/C=C/C(=O)c1ccc(C(=O)O)cc1` [Example 45, 4-[3E-(2-Methoxy-5-thiophen-2-yl-phenyl)-acryloyl]-benzoic acid], the melting point lay in the range of 195 to 196 °C. The compound also registered a concentration for half-maximal inhibition (IC50) in the data set with VCAM-1 of less than 5 µM.

Take `COc1cc(OC)c(-c2cnccn2)cc1/C=C/C(=O)c1ccc(C(=O)O)cc1` [Example 46, 4-[3E-(2,4-Dimethoxy-5-pyrazin-2-yl-phenyl)-acryloyl]-benzoic acid]: the melting point is 238 °C (dec.). The 50% inhibitory concentration (IC50) in the data set with VCAM-1 is less than 10 µM.

The compound `COc1cc(OC(C)(C)C(=O)O)c(-c2cccs2)cc1/C=C/C(=O)c1ccc(C(=O)O)cc1` [Example 47, 4-{3E-[4-(1-Carboxy-1-methyl-ethoxy)-2-methoxy-5-thiophen-2-yl-phenyl]-acryloyl}-benzoic acid] had a melting point of 135 to 137 °C. In the data set with VCAM-1, this compound yielded a half-maximal inhibitory concentration (IC50) of more than 10 µM.

As to `COc1ccc(/C=C/C(=O)c2ccccc2C(=O)O)cc1-c1cccs1` [Example 48, 2-[3E-(4-Methoxy-3-thiophen-2-yl-phenyl)-acryloyl]-benzoic acid], the melting point was in the range of 79 to 81 °C. For the same compound, the IC50 with VCAM-1 is less than 10 µM.

In turn, `COCCOCCOc1cc(OC)c(/C=C/C(=O)c2ccc(C(=O)O)cc2)cc1-c1cccs1` [Example 49, 4-(3E-{2-Methoxy-4-[2-(2-methoxy-ethoxy)-ethoxy]-5-thiophen-2-yl-phenyl}-acryloyl)-benzoic acid] came in with a melting point of 174 to 175 °C. In addition, the IC50 with VCAM-1 was less than 10 µM.

In the case of `COc1cc(OCC(CO)CO)c(-c2cccs2)cc1/C=C/C(=O)c1ccc(C(=O)O)cc1` [Example 50, 4-{3E-[4-(3-Hydroxy-2-hydroxymethyl-propoxy)-2-methoxy-5-thiophen-2-yl-phenyl]-acryloyl}-benzoic acid], the melting point was in the range of 199 to 201 °C. For the same compound, the IC50 in the data set on VCAM-1 was more than 10 µM.

For the compound `CCOc1cc(OC)c(/C=C/C(=O)c2ccc(C(=O)O)cc2)cc1-c1cccs1` [Example 53, 4-[3E-(4-Ethoxy-2-methoxy-5-thiophen-2-yl-phenyl)-acryloyl]-benzoic acid], the melting point lay within 210 to 212 °C. In addition, the IC50 in the data set on VCAM-1 is less than 5 µM.

Take `COc1cc(O)c(-c2cccs2)cc1/C=C/C(=O)c1ccc(C(=O)O)cc1` [Example 54, 4-[3E-(4-Hydroxy-2-methoxy-5-thiophen-2-yl-phenyl)-acryloyl]-benzoic acid]: the melting point was 243 °C (dec.). This compound also displayed an IC50 in the data set with VCAM-1 of less than 10 µM.

The compound `COc1cc(OC)c(-c2nccs2)cc1/C=C/C(=O)c1ccc(C(=O)O)cc1` [Example 55, 4-[3E-(2,4-Dimethoxy-5-thiazol-2-yl-phenyl)-acryloyl]-benzoic acid] displayed a melting point of more than 260 °C. The compound also came in with an IC50 with VCAM-1 of less than 5 µM.

Compound `COc1cc(OC)c(-c2cccn2C(=O)OC(C)(C)C)cc1/C=C/C(=O)c1ccc(C(=O)O)cc1` [Example 57, 2-{5-[3-(4-Carboxy-phenyl)-3-oxo-E-propenyl]-2,4-dimethoxy-phenyl}-pyrrole-1-carboxylic acid tert-butyl ester] yielded a melting point of 205 to 207 °C. This compound also yielded an IC50 in the data set on VCAM-1 of less than 5 µM.

`COc1cc(O)c(/C=C/C(=O)c2ccc(C(=O)O)cc2)cc1-c1cccs1` [Example 58, 4-[3E-(2-Hydroxy-4-methoxy-5-thiophen-2-yl-phenyl)-acryloyl]-benzoic acid]: the melting point was 125 °C (dec.). The IC50 in the data set on VCAM-1 was more than 10 µM.

Take `COc1cc(OC)c(-c2cc3ccccc3[nH]2)cc1/C=C/C(=O)c1ccc(C(=O)O)cc1` [Example 61, 4-{3E-[5-(1H-Indol-2-yl)-2,4-dimethoxy-phenyl]-acryloyl}-benzoic acid]: the melting point is 210 to 212 °C. In the data set with VCAM-1, this compound showed a 50% inhibitory concentration (IC50) of less than 1 µM.

`COc1cc(OCc2c(C)noc2C)c(/C=C/C(=O)c2ccc(C(=O)O)cc2)cc1-c1cccs1` [Example 62, 4-{3E-[2-(3,5-Dimethyl-isoxazol-4-ylmethoxy)-4-methoxy-5-thiolphen-2-yl-phenyl]-acryloyl}-benzoic acid] displayed a melting point of 213 to 215 °C. For the same compound, the IC50 with VCAM-1 is less than 5 µM.

In turn, `COc1cc(OCC(CO)CO)c(/C=C/C(=O)c2ccc(C(=O)O)cc2)cc1-c1cccs1` [Example 64, 4-{3E-[2-(3-Hydroxy-2-hydroxymethyl-propoxy)-4-methoxy-5-thiophen-2-yl-phenyl]-acryloyl}-benzoic acid] had a melting point of 219 to 220 °C. For the same compound, the half-inhibitory concentration (IC50) with VCAM-1 was more than 10 µM.

With `Cl.O=C(O)c1ccc(C(=O)/C=C/c2cc(-c3cccs3)ccc2OCCCN2CCOCC2)cc1` [Example 65, 4-{3E-[2-(3-Morpholin-4yl-propoxy)-5-thiophen-2-yl-phenyl]-acryloyl}-benzoic acid, hydrochloride], the melting point lay within 234 to 236 °C. The compound also gave a concentration for half-maximal inhibition (IC50) in the data set on VCAM-1 of less than 1 µM.

For the compound `COc1cc(OCCCN2CCOCC2)c(/C=C/C(=O)c2ccc(C(=O)O)cc2)cc1-c1cccs1.Cl` [Example 66, 4-{3E-[4-Methoxy-2-(3-morpholin-4-yl-propoxy)-5-thiophen-2-yl-phenyl]-acryloyl}-benzoic acid, hydrochloride], the melting point is 188 to 191 °C (dec.). In the data set with VCAM-1, this compound yielded a 50% inhibitory concentration (IC50) of less than 1 µM.

As to `COc1cc(OCC(=O)N(C)C)c(/C=C/C(=O)c2ccc(C(=O)O)cc2)cc1-c1cccs1` [Example 67, 4-[3E-(2-Dimethylcarbamoylmethoxy-4-methoxy-5-thiophen-2-yl-phenyl)-acryloyl]-benzoic acid], the melting point lay within 228 to 229 °C. Moreover, in the data set on VCAM-1, the IC50 was less than 10 µM.

`COCCOCCOCCOc1cc(OC)c(-c2cccs2)cc1/C=C/C(=O)c1ccc(C(=O)O)cc1` [Example 68, 4-[3E-(4-Methoxy-2-{2-[2-(2-methoxy-ethoxy)-ethoxy]-ethoxy}-5-thiophen-2-yl-phenyl)-acryloyl]-benzoic acid]: the melting point lay in the range of 137 to 138 °C. Besides, the half-inhibitory concentration (IC50) with VCAM-1 is less than 5 µM.
